Results published in PubChem BioAssay AID330 (DTP/NCI, 2004).
Several values for one entry are separate records, joined by “and”; a condition that tells them apart may be missing. Equal entries are not always repeated. Inconclusive results and toxic doses are left out. How the source made its calls: active means survival T/C of 150% or more; inactive means T/C below 125% in these data.

Test system: P388 leukemia ip, CD2F1 mice, survival T/C
Assay: NCI In Vivo Anticancer Drug Screen. Data for tumor model P388 Leukemia (intraperitoneal) in CD2F1 (CDF1) mice
Details: endpoint: median survival time, higher = longer survival
Procedure, shortened: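 Mice carrying the transplanted tumor received test compound or vehicle. Survival was recorded in each group, and the value is the treated-group measurement divided by that of the vehicle-treated control group.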

[1] = dose: 50.0 mg/kg/injection, schedule: Q01DX005 (ip), vehicle: Klucel (hydroxypropylcellulose) (HPC)
[2] = dose: 100.0 mg/kg/injection, schedule: Q01DX005 (ip), vehicle: Klucel (hydroxypropylcellulose) (HPC)
[3] = dose: 200.0 mg/kg/injection, schedule: Q01DX005 (ip), vehicle: Klucel (hydroxypropylcellulose) (HPC)
[4] = dose: 25.0 mg/kg/injection, schedule: Q01DX009 (ip), vehicle: saline sonified
[5] = dose: 50.0 mg/kg/injection, schedule: Q01DX009 (ip), vehicle: saline sonified
[6] = dose: 50.0 mg/kg/injection, schedule: Q01DX005 (ip), vehicle: saline with Tween-80
[7] = dose: 100.0 mg/kg/injection, schedule: Q01DX005 (ip), vehicle: saline with Tween-80
[8] = dose: 200.0 mg/kg/injection, schedule: Q01DX005 (ip), vehicle: saline with Tween-80
[9] = dose: 200.0 mg/kg/injection, schedule: Q01DX009 (ip), vehicle: saline
[10] = dose: 12.5 mg/kg/injection, schedule: Q01DX005 (ip), vehicle: saline with Tween-80
[11] = dose: 25.0 mg/kg/injection, schedule: Q01DX005 (ip), vehicle: saline with Tween-80
[12] = dose: 60.0 mg/kg/injection, schedule: Q01DX005 (ip), vehicle: saline with Tween-80
[13] = dose: 100.0 mg/kg/injection, schedule: Q04DX003 (ip), vehicle: saline with Tween-80

Measured: T/C

CCCCNC1=CC(=O)C(NCCCC)=CC1=O
inactive: [1] 100 % of control | [2] 101 % of control | [3] 98 % of control

O=P(CCC(O)c1ccccc1)(c1ccccc1)c1ccccc1 (configuration not stated)
inactive: [4] 100 % of control | [5] 90 % of control

C=CC[n+]1ccc2ccccc2c1
inactive: [4] 90 % of control | [5] 90 % of control | dose: 100.0 mg/kg/injection, schedule: Q01DX009 (ip), vehicle: saline sonified 95 % of control

COc1ccc2c(c1)CCC1C2=CCS1(=O)=O (configuration not stated)
inactive: [6] 103 % of control | [7] 94 % of control | [8] 92 % of control

CC(C)CCNCC(N)C(=O)O (configuration not stated)
inactive: dose: 100.0 mg/kg/injection, schedule: Q04DX003 (ip), vehicle: Klucel (hydroxypropylcellulose) (HPC) 100 % of control | dose: 200.0 mg/kg/injection, schedule: Q04DX003 (ip), vehicle: Klucel (hydroxypropylcellulose) (HPC) 98 % of control | dose: 400.0 mg/kg/injection, schedule: Q04DX003 (ip), vehicle: Klucel (hydroxypropylcellulose) (HPC) 99 % of control

CC(C)C1C(=O)NC(c2ccc(N)cc2)c2ccccc21 (configuration not stated)
inactive: dose: 12.5 mg/kg/injection, schedule: Q01DX009 (ip), vehicle: saline with Tween-80 104 % of control | dose: 25.0 mg/kg/injection, schedule: Q01DX009 (ip), vehicle: saline with Tween-80 94 % of control | dose: 50.0 mg/kg/injection, schedule: Q01DX009 (ip), vehicle: saline with Tween-80 93 % of control | dose: 50.0 mg/kg/injection, schedule: Q01DX009 (ip), vehicle: saline 105 % of control | [9] 90 % of control

Cc1c2c(nn1C)CCOC2=O
inactive: dose: 100.0 mg/kg/injection, schedule: Q01DX001 (ip), vehicle: Klucel (hydroxypropylcellulose) (HPC) 100 % of control | dose: 200.0 mg/kg/injection, schedule: Q01DX001 (ip), vehicle: Klucel (hydroxypropylcellulose) (HPC) 101 % of control | dose: 400.0 mg/kg/injection, schedule: Q01DX001 (ip), vehicle: Klucel (hydroxypropylcellulose) (HPC) 95 % of control

Cc1cc2c(C(C)C)c(O)c(O)c(C=NC3CCCCC3)c2c(O)c1-c1c(C)cc2c(C(C)C)c(O)c(O)c(C=NC3CCCCC3)c2c1O
inactive: [10] 103 % of control | [11] 92 % of control | [6] 88 % of control

Fc1ccc(NC(=S)SCc2ccc(Cl)c(Cl)c2)cc1
inactive: dose: 50.0 mg/kg/injection, schedule: Q01DX009 (ip), vehicle: suspension in saline 90 % of control | dose: 100.0 mg/kg/injection, schedule: Q01DX009 (ip), vehicle: suspension in saline 90 % of control | dose: 200.0 mg/kg/injection, schedule: Q01DX009 (ip), vehicle: suspension in saline 102 % of control

COc1cc(C(NC(=O)N2C(=O)C=CC2=O)NC(=O)N2C(=O)C=CC2=O)ccc1O
inactive: [6] 106 % of control | [7] 100 % of control | [8] 100 % of control

CCc1ccc2c(-c3ccccc3)c3c(-c4ccccc4)c4ccccc4c(-c4ccccc4)c3c(-c3ccccc3)c2c1
inactive: [10] 99 % of control | [11] 91 % of control | [6] 98 % of control and 88 % of control

COc1nc(N(CCO)c2ccccc2)nc(N(CCO)c2ccccc2)n1
inactive: [6] 96 % of control | [7] 93 % of control | [8] 92 % of control

Cc1ccc(NC(=O)Cc2nc3ccccc3s2)c(C)c1
inactive: [12] 103 % of control | dose: 120.0 mg/kg/injection, schedule: Q01DX005 (ip), vehicle: saline with Tween-80 110 % of control

CCOC(=O)c1c[nH]c2ccc3[nH]cnc3c2c1=O
inactive: [1] 95 % of control | [2] 99 % of control | [3] 95 % of control

COc1ccc(OC)c(C2N(Cc3ccc(N(C)C)cc3)CCCN2Cc2ccc(N(C)C)cc2)c1
inactive: dose: 50.0 mg/kg/injection, schedule: Q04DX003 (ip), vehicle: saline with Tween-80 91 % of control | [13] 91 % of control

CSC(C#N)(c1ccccc1)N(C)C (configuration not stated)
inactive: dose: 25.0 mg/kg/injection, schedule: Q04DX003 (ip), vehicle: suspension in saline 106 % of control | dose: 50.0 mg/kg/injection, schedule: Q04DX003 (ip), vehicle: suspension in saline 103 % of control | [13] 103 % of control | dose: 100.0 mg/kg/injection, schedule: Q04DX003 (ip), vehicle: suspension in saline 96 % of control

COc1ccc(C(C)c2cc3c(cc2OC)OCO3)cc1C (configuration not stated)
inactive: dose: 25.0 mg/kg/injection, schedule: Q01DX005 (ip), vehicle: Klucel (hydroxypropylcellulose) (HPC) 104 % of control and 105 % of control | [1] 100 % of control and 109 % of control and 120 % of control | [2] 98 % of control and 105 % of control and 111 % of control | [3] 100 % of control and 110 % of control and 120 % of control | dose: 400.0 mg/kg/injection, schedule: Q01DX005 (ip), vehicle: Klucel (hydroxypropylcellulose) (HPC) 100 % of control

CC(NNC(=S)N1CCC(c2ccccc2)CC1)c1cc2ccccc2cn1 (configuration not stated)
inactive: dose: 6.25 mg/kg/injection, schedule: Q01DX005 (ip), vehicle: saline with Tween-80 97 % of control | [10] 103 % of control | [11] 111 % of control

COCCOCCOCCOCCOCCOCCOCCOC(=O)Nc1ccc(C)c(NC(=O)OCCOCCOCCOCCOCCOCCOCCOC)c1
inactive: dose: 100.0 mg/kg/injection, schedule: Q01DX009 (ip), vehicle: saline 109 % of control | [9] 109 % of control | dose: 400.0 mg/kg/injection, schedule: Q01DX009 (ip), vehicle: saline 95 % of control

CC(C(=O)O)C(Nc1ncnc2c1ncn2C1OC(CO)C(O)C1O)C(=O)O (configuration not stated)
inactive: dose: 100.0 mg/kg/injection, schedule: Q04DX003 (ip), vehicle: saline 98 % of control | dose: 200.0 mg/kg/injection, schedule: Q04DX003 (ip), vehicle: saline 100 % of control | dose: 400.0 mg/kg/injection, schedule: Q04DX003 (ip), vehicle: saline 98 % of control

CCN(CC)Cc1ccccc1CO
inactive: dose: 50.0 mg/kg/injection, schedule: Q01DX005 (ip), vehicle: saline 110 % of control | dose: 100.0 mg/kg/injection, schedule: Q01DX005 (ip), vehicle: saline 106 % of control

O=C(Nc1ccc(Cl)cc1)Nc1nnc(-c2ccc(F)cc2)o1
inactive: dose: 15.0 mg/kg/injection, schedule: Q01DX005 (ip), vehicle: saline with Tween-80 100 % of control | dose: 30.0 mg/kg/injection, schedule: Q01DX005 (ip), vehicle: saline with Tween-80 91 % of control | [12] 90 % of control
